{
  "source": "patent US8501713B2",
  "about": "“Drug combinations for the treatment of duchenne muscular dystrophy” (Summit Corporation PLC, priority 2007, dated 2013)",
  "data": [
    {"tested_on": "Utrophin A promoter linked to a luciferase reporter gene", "test": "Luciferase reporter assay (murine H2K cells)", "assay_type": "cell-based", "details": "Mus musculus, H2K mdx, luciferase level relative to control; H2K/mdx/Utro A reporter cells; compound 10 μM final concentration; read-out: Activity", "experimental": "(§1) 1. Luciferase Reporter Assay (Murine H2K Cells)\n(§2) The cell line used for the screen is an immortalized mdx mouse H2K cell line that has been stably transfected with a plasmid containing […] fragment of the Utrophin A promoter including the first untranslated exon linked to a luciferase reporter gene. Under conditions of low temperature and interferon containing media, the cells remain as myoblasts. These are plated into 96 well plates and cultured in the presence of compound for three days. The level of luciferase is then determined by cell lysis and reading of the light output from the expressed luciferase gene utilising a plate luminometer.\n(§3) H2K/mdx/Utro A reporter Cell Line Maintenance\n(§4) The cells were grown at 33° C. in the presence of 10% CO2. To remove the myoblasts for platting, they were incubated with Trypsin EDTA until the monolayer started to detach.\n(§5) The plates were then incubated at 33° C. in the presence of 10% CO2 for 24 hrs. Compounds were dosed by adding 10 μl of diluted compound to each well giving a final concentration of 10 μM. The plates were then incubated for a further 48 hrs. Cells were then lysed in situ following the manufacture's protocols (Promega Steady-Glo Luciferase Assay System (E2520). Then counted for 10 seconds using a plate luminometer (Victor1420).\n(§6) Compounds for screening were stored at −20° C. as 10 mM stocks in 100% DMSO until required.\n(§7) Biological activity as assessed using the luciferase reporter assay in murine H2K cells, and is classified as follows: […]", "units": {"activity at 10 µM": "%"}, "values": [
      {"compound": "CN(C)c1ccc(-c2nc3cc(NC(=O)c4ccncc4)ccc3o2)cc1", "note": "[Example 1, N-(2-(4-(dimethylamino)phenyl)benzo[d]oxazol-5-yl)isonicotinamide]", "activity at 10 µM": "< 200"},
      {"compound": "O=C(Nc1ccc2oc(-c3ccc(F)cc3)nc2c1)c1ccco1", "note": "[Example 2, N-(2-(4-fluorophenyl)benzo[d]oxazol-5-yl)furan-2-carboxamide]", "activity at 10 µM": "< 200"},
      {"compound": "Cn1c(COc2ccc(Cl)cc2)nc2ccccc21", "note": "[Example 3, 2-((4-chlorophenoxy)methyl)-1-methyl-1H-benzo[d]imidazole]", "activity at 10 µM": "301 to 400"},
      {"compound": "COc1ccc(OCc2nc3ccccc3[nH]2)cc1", "note": "[Example 4, 2-((4-methoxyphenoxy)methyl)-1H-benzo[d]imidazole]", "activity at 10 µM": "201 to 300"},
      {"compound": "O=C(c1ccccc1)c1ccc2nc(-c3ccccc3)[nH]c2c1", "note": "[Example 5, phenyl(2-phenyl-1H-benzo[d]imidazol-6-yl)methanone]", "activity at 10 µM": "< 200"},
      {"compound": "O=C(Nc1ccc2oc(-c3ccccc3)nc2c1)c1cccnc1", "note": "[Example 6, N-(2-phenylbenzo[d]oxazol-5-yl)nicotinamide]", "activity at 10 µM": "< 200"},
      {"compound": "O=C(CCc1ccccc1)Nc1ccc2oc(-c3ccccc3)nc2c1", "note": "[Example 7, 3-phenyl-N-(2-phenylbenzo[d]oxazol-5-yl)propanamide]", "activity at 10 µM": "< 200"},
      {"compound": "CC(=O)Nc1ccc2oc(-c3ccccc3)nc2c1", "note": "[Example 8, N-(2-phenylbenzo[d]oxazol-5-yl)acetamide]", "activity at 10 µM": "201 to 300"},
      {"compound": "CCC(=O)Nc1ccc2oc(-c3ccccc3)nc2c1", "note": "[Example 9, N-(2-phenylbenzo[d]oxazol-5-yl)propionamide]", "activity at 10 µM": "201 to 300"},
      {"compound": "CCCC(=O)Nc1ccc2oc(-c3ccccc3)nc2c1", "note": "[Example 10, N-(2-phenylbenzo[d]oxazol-5-yl)butyramide]", "activity at 10 µM": "301 to 400"},
      {"compound": "CCCCC(=O)Nc1ccc2oc(-c3ccccc3)nc2c1", "note": "[Example 11, N-(2-phenylbenzo[d]oxazol-5-yl)pentanamide]", "activity at 10 µM": "201 to 300"},
      {"compound": "CC(C)C(=O)Nc1ccc2oc(-c3ccccc3)nc2c1", "note": "[Example 12, N-(2-phenylbenzo[d]oxazol-5-yl)isobutyramide]", "activity at 10 µM": "201 to 300"},
      {"compound": "O=C(Nc1ccc2oc(-c3ccccc3)nc2c1)c1ccco1", "note": "[Example 13, N-(2-phenylbenzo[d]oxazol-5-yl)furan-2-carboxamide]", "activity at 10 µM": "201 to 300"},
      {"compound": "Nc1ccc2oc(-c3ccccc3)nc2c1", "note": "[Example 14, 2-phenylbenzo[d]oxazol-5-amine]", "activity at 10 µM": "301 to 400"},
      {"compound": "Nc1ccc2oc(-c3ccc(C(F)(F)F)cc3)nc2c1", "note": "[Example 15, 2-(4-(trifluoromethyl)phenyl)benzo[d]oxazol-5-amine]", "activity at 10 µM": "< 200"},
      {"compound": "CCN(CC)c1ccc(-c2nc3cc(N)ccc3o2)cc1", "note": "[Example 16, 2-(4-(diethylamino)phenyl)benzo[d]oxazol-5-amine]", "activity at 10 µM": "201 to 300"},
      {"compound": "Cc1ccc(-c2nc3cc(N)ccc3o2)cc1", "note": "[Example 18, 2-p-tolylbenzo[d]oxazol-5-amine]", "activity at 10 µM": "< 200"},
      {"compound": "Cc1ccc(-c2nc3cc(NC(=O)c4ccc(Cl)cc4)ccc3o2)cc1", "note": "[Example 19, 4-chloro-N-(2-p-tolylbenzo[d]oxazol-5-yl)benzamide]", "activity at 10 µM": "< 200"},
      {"compound": "COc1ccc(C(=O)Nc2ccc3oc(-c4ccc(C)cc4)nc3c2)cc1", "note": "[Example 20, 4-methoxy-N-(2-p-tolylbenzo[d]oxazol-5-yl)benzamide]", "activity at 10 µM": "< 200"},
      {"compound": "O=[N+]([O-])c1ccc2oc(-c3ccccc3O)nc2c1", "note": "[Example 21, 2-(5-nitrobenzo[d]oxazol-2-yl)phenol]", "activity at 10 µM": "< 200"},
      {"compound": "O=C(Nc1ccc2oc(-c3ccccc3)nc2c1)c1ccncc1", "note": "[Example 22, N-(2-phenylbenzo[d]oxazol-5-yl)isonicotinamide]", "activity at 10 µM": "< 200"},
      {"compound": "O=C(Nc1ccc2oc(-c3ccccc3)nc2c1)c1ccc(Cl)cc1", "note": "[Example 23, 4-chloro-N-(2-phenylbenzo[d]oxazol-5-yl)benzamide]", "activity at 10 µM": "< 200"},
      {"compound": "Cc1ccc(C(=O)Nc2ccc3oc(-c4ccccc4)nc3c2)cc1", "note": "[Example 24, 4-methyl-N-(2-phenylbenzo[d]oxazol-5-yl)benzamide]", "activity at 10 µM": "< 200"},
      {"compound": "COc1ccc(C(=O)Nc2ccc3oc(-c4ccccc4)nc3c2)cc1", "note": "[Example 25, 4-methoxy-N-(2-phenylbenzo[d]oxazol-5-yl)benzamide]", "activity at 10 µM": "< 200"},
      {"compound": "COc1ccccc1C(=O)Nc1ccc2oc(-c3ccccc3)nc2c1", "note": "[Example 26, 2-methoxy-N-(2-phenylbenzo[d]oxazol-5-yl)benzamide]", "activity at 10 µM": "< 200"},
      {"compound": "CN(C)c1ccc(C(=O)Nc2ccc3oc(-c4ccccc4)nc3c2)cc1", "note": "[Example 27, 4-(dimethylamino)-N-(2-phenylbenzo[d]oxazol-5-yl)benzamide]", "activity at 10 µM": "< 200"},
      {"compound": "O=C(Nc1ccc2oc(-c3ccccc3)nc2c1)c1ccc(Cl)c(Cl)c1", "note": "[Example 28, 3,4-dichloro-N-(2-phenylbenzo[d]oxazol-5-yl)benzamide]", "activity at 10 µM": "< 200"},
      {"compound": "O=C(Nc1ccc2oc(-c3ccccc3)nc2c1)c1ccc(C(F)(F)F)cc1", "note": "[Example 29, N-(2-phenylbenzo[d]oxazol-5-yl)-4-(trifluoromethyl)benzamide]", "activity at 10 µM": "< 200"},
      {"compound": "O=C(Nc1ccc2oc(-c3ccccc3)nc2c1)c1cc(Cl)cc(Cl)c1", "note": "[Example 30, 3,5-dichloro-N-(2-phenylbenzo[d]oxazol-5-yl)benzamide]", "activity at 10 µM": "< 200"},
      {"compound": "O=C(Nc1ccc2oc(-c3ccccc3)nc2c1)c1ccc(F)cc1", "note": "[Example 31, 4-fluoro-N-(2-phenylbenzo[d]oxazol-5-yl)benzamide]", "activity at 10 µM": "< 200"},
      {"compound": "O=C(Nc1ccc2oc(-c3ccccc3)nc2c1)c1ccc(-c2ccccc2)cc1", "note": "[Example 32, N-(2-phenylbenzo[d]oxazol-5-yl)biphenyl-4-carboxamide]", "activity at 10 µM": "< 200"},
      {"compound": "O=C(Cc1ccccc1)Nc1ccc2oc(-c3ccccc3)nc2c1", "note": "[Example 33, 2-phenyl-N-(2-phenylbenzo[d]oxazol-5-yl)acetamide]", "activity at 10 µM": "< 200"},
      {"compound": "O=C(C=Cc1ccccc1)Nc1ccc2oc(-c3ccccc3)nc2c1", "note": "[Example 34, N-(2-phenylbenzo[d]oxazol-5-yl)cinnamamide]", "activity at 10 µM": "< 200"},
      {"compound": "O=C(Nc1ccc2oc(-c3ccccc3)nc2c1)c1cccc2ccccc12", "note": "[Example 35, N-(2-phenylbenzo[d]oxazol-5-yl)-1-naphthamide]", "activity at 10 µM": "< 200"},
      {"compound": "O=C(Nc1ccc2oc(-c3ccccc3)nc2c1)c1ccc2ccccc2c1", "note": "[Example 36, N-(2-phenylbenzo[d]oxazol-5-yl)-2-naphthamide]", "activity at 10 µM": "< 200"},
      {"compound": "O=C(Nc1ccc2oc(-c3ccccc3)nc2c1)c1cccs1", "note": "[Example 37, N-(2-phenylbenzo[d]oxazol-5-yl)thiophene-2-carboxamide]", "activity at 10 µM": "201 to 300"},
      {"compound": "Nc1ccc2oc(-c3ccccc3O)nc2c1", "note": "[Example 38, 2-(5-aminobenzo[d]oxazol-2-yl)phenol]", "activity at 10 µM": "301 to 400"},
      {"compound": "O=C(Nc1ccc2oc(-c3cccnc3)nc2c1)c1ccccc1", "note": "[Example 39, N-(2-(pyridin-3-yl)benzo[d]oxazol-5-yl)benzamide]", "activity at 10 µM": "< 200"},
      {"compound": "O=C(Nc1ccc2oc(-c3cccnc3)nc2c1)c1ccc(Cl)cc1", "note": "[Example 40, 4-chloro-N-(2-(pyridin-3-yl)benzo[d]oxazol-5-yl)benzamide]", "activity at 10 µM": "< 200"},
      {"compound": "Cc1ccc(C(=O)Nc2ccc3oc(-c4cccnc4)nc3c2)cc1", "note": "[Example 41, 4-methyl-N-(2-(pyridin-3-yl)benzo[d]oxazol-5-yl)benzamide]", "activity at 10 µM": "< 200"},
      {"compound": "COc1ccc(C(=O)Nc2ccc3oc(-c4cccnc4)nc3c2)cc1", "note": "[Example 42, 4-methoxy-N-(2-(pyridin-3-yl)benzo[d]oxazol-5-yl)benzamide]", "activity at 10 µM": "< 200"},
      {"compound": "COc1ccccc1C(=O)Nc1ccc2oc(-c3cccnc3)nc2c1", "note": "[Example 43, 2-methoxy-N-(2-(pyridin-3-yl)benzo[d]oxazol-5-yl)benzamide]", "activity at 10 µM": "< 200"},
      {"compound": "CN(C)c1ccc(C(=O)Nc2ccc3oc(-c4cccnc4)nc3c2)cc1", "note": "[Example 44, 4-(dimethylamino)-N-(2-(pyridin-3-yl)benzo[d]oxazol-5-yl)benzamide]", "activity at 10 µM": "< 200"},
      {"compound": "O=C(Nc1ccc2oc(-c3cccnc3)nc2c1)c1ccc(Cl)c(Cl)c1", "note": "[Example 45, 3,4-dichloro-N-(2-(pyridin-3-yl)benzo[d]oxazol-5-yl)benzamide]", "activity at 10 µM": "< 200"},
      {"compound": "O=C(Nc1ccc2oc(-c3cccnc3)nc2c1)c1ccc(C(F)(F)F)cc1", "note": "[Example 46, N-(2-(pyridin-3-yl)benzo[d]oxazol-5-yl)-4-(trifluoromethyl)benzamide]", "activity at 10 µM": "< 200"},
      {"compound": "O=C(Nc1ccc2oc(-c3cccnc3)nc2c1)c1cc(Cl)cc(Cl)c1", "note": "[Example 47, 3,5-dichloro-N-(2-(pyridin-3-yl)benzo[d]oxazol-5-yl)benzamide]", "activity at 10 µM": "< 200"},
      {"compound": "O=C(Nc1ccc2oc(-c3cccnc3)nc2c1)c1ccc(F)cc1", "note": "[Example 48, 4-fluoro-N-(2-(pyridin-3-yl)benzo[d]oxazol-5-yl)benzamide]", "activity at 10 µM": "< 200"},
      {"compound": "O=C(Nc1ccc2oc(-c3cccnc3)nc2c1)c1ccc(-c2ccccc2)cc1", "note": "[Example 49, N-(2-(pyridin-3-yl)benzo[d]oxazol-5-yl)biphenyl-4-carboxamide]", "activity at 10 µM": "< 200"}
    ]},
    {"tested_on": "Utrophin A promoter linked to a luciferase reporter gene", "test": "Luciferase reporter assay (murine H2K cells)", "assay_type": "cell-based", "details": "luciferase level relative to control; H2K/mdx/Utro A reporter cells; compound 10 μM final concentration", "experimental": "as §1, §2, §3, §4, §5, §6, §7", "values": [
      {"compound": "CCN(CC)c1ccc(-c2nc3cc(N)ccc3o2)cc1", "note": "[Example 17, 2-(4-(diethylamino)phenyl)benzo[d]oxazol-5-amine]", "Activity": "+ (Up to 200% relative to control)"}
    ]}
  ]
}
